Our source for the Relative potency values is ChEMBL document CHEMBL1122427, “Structure-activity studies of highly potent cyclic [Cys4,Cys10]Melanotropin analogues” (J Med Chem, 1983).

SMILES strings stand for the structures.

The test system of experiment [1] is frog. Briefly: Evaluated for relative potency in stimulating melanosome dispersion against Frog skin melanophores (Rana pipiens). The format is functional.
Experiment [2] concerns lizard. Briefly: Evaluated for relative potency in stimulating melanosome dispersion against Lizard skin (Anolis carolinensis). Format: functional.

On to `CSCC[C@H](NC(C)=O)C(=O)N[C@@H](CCC(=O)O)C(=O)N[C@@H](Cc1c[nH]cn1)C(=O)N[C@@H](Cc1ccccc1)C(=O)N[C@@H](CCCN=C(N)N)C(=O)N[C@@H](Cc1c[nH]c2ccccc12)C(=O)NCC(N)=O`, for which the Relative potency in experiment [1] was found to be 0.0006; in experiment [2], 0.02.
Consider `CC(=O)N[C@@H]1CSSC[C@H](C(=O)N[C@H](CCCCN)C(=O)N2CCC[C@@H]2C(=O)N[C@@H](C(N)=O)C(C)C)NC(=O)[C@@H](Cc2c[nH]c3ccccc23)NC(=O)[C@H](CCCN=C(N)N)NC(=O)[C@@H](Cc2ccccc2)NC(=O)[C@H](Cc2c[nH]cn2)NC(=O)[C@@H](CCC(=O)O)NC1=O`, for which the Relative potency in experiment [1] was found to be 10000; in experiment [2], 1.6.
For `CC(=O)N[C@@H](CO)C(=O)N[C@@H](Cc1ccc(O)cc1)C(=O)N[C@@H](CO)C(=O)N[C@@H]1CSSC[C@H](C(=O)N[C@H](CCCCN)C(=O)N2CCC[C@@H]2C(=O)N[C@@H](C(N)=O)C(C)C)NC(=O)[C@@H](Cc2c[nH]c3ccccc23)NC(=O)[C@H](CCCN=C(N)N)NC(=O)[C@@H](Cc2ccccc2)NC(=O)[C@H](Cc2c[nH]cn2)NC(=O)[C@@H](CCC(=O)O)NC1=O` the same measures were 10000 and 32.
For the molecule `CC(=O)N[C@@H]1CSSC[C@H](C(N)=O)NC(=O)[C@@H](Cc2c[nH]c3ccccc23)NC(=O)[C@H](CCCN=C(N)N)NC(=O)[C@@H](Cc2ccccc2)NC(=O)[C@H](Cc2c[nH]cn2)NC(=O)[C@@H](CCC(=O)O)NC1=O`, the Relative potency in experiment [1] was 0.07; in experiment [2], 0.003.
